Experimental data published in the NIST ThermoML archive (doi:10.1021/je049671t).

Assay: xn = mol fraction of the nth substance listed
Details: Liquid, Vibrating tube method

CC(C)C [2-methylpropane] + CCCC
Details	mass density [kg/m3]
240 K, 468.1 kPa, x2 = 0.5	626.35
240 K, 481.6 kPa, x2 = 0.25	621.79
240 K, 499 kPa, x2 = 0.75	631.33
240 K, 989.5 kPa, x2 = 0.5	626.9
240 K, 999.5 kPa, x2 = 0.25	622.36
240 K, 1001 kPa, x2 = 0.75	631.85
240 K, 1472.5 kPa, x2 = 0.5	627.41
240 K, 1500.2 kPa, x2 = 0.75	632.38
240 K, 1503.1 kPa, x2 = 0.25	622.9
240 K, 1962.6 kPa, x2 = 0.5	627.92
240 K, 2001.8 kPa, x2 = 0.25	623.43
240 K, 2011.4 kPa, x2 = 0.75	632.88
240 K, 2468.8 kPa, x2 = 0.5	628.43
240 K, 2493.8 kPa, x2 = 0.25	623.95
240 K, 2505.1 kPa, x2 = 0.75	633.43
240 K, 2976.4 kPa, x2 = 0.5	628.95
240 K, 2987.3 kPa, x2 = 0.25	624.47
240 K, 3003.9 kPa, x2 = 0.75	633.91
240 K, 3446 kPa, x2 = 0.5	629.43
240 K, 3481.8 kPa, x2 = 0.25	624.99
240 K, 3507.2 kPa, x2 = 0.75	634.38
240 K, 3970.1 kPa, x2 = 0.25	625.5
240 K, 3982.7 kPa, x2 = 0.5	629.98
240 K, 4015.3 kPa, x2 = 0.75	634.92
240 K, 4467.2 kPa, x2 = 0.5	630.47
240 K, 4485.6 kPa, x2 = 0.25	626.03
240 K, 4509.6 kPa, x2 = 0.75	635.35
240 K, 4983.6 kPa, x2 = 0.5	630.99
240 K, 5011.3 kPa, x2 = 0.75	635.85
240 K, 5024.9 kPa, x2 = 0.25	626.58
240 K, 5486.4 kPa, x2 = 0.5	631.5
240 K, 5515.8 kPa, x2 = 0.75	636.31
240 K, 5519.2 kPa, x2 = 0.25	627.11
240 K, 5981.2 kPa, x2 = 0.5	631.99
240 K, 6023.5 kPa, x2 = 0.75	636.82
240 K, 6067.5 kPa, x2 = 0.25	627.64
240 K, 6486.1 kPa, x2 = 0.5	632.5
240 K, 6492.4 kPa, x2 = 0.75	637.29
240 K, 6517.4 kPa, x2 = 0.25	628.1
240 K, 6977 kPa, x2 = 0.25	628.56
240 K, 6981 kPa, x2 = 0.5	632.99
240 K, 6991.5 kPa, x2 = 0.75	637.75
260 K, 496.3 kPa, x2 = 0.75	610.36
260 K, 503.7 kPa, x2 = 0.25	600.66
260 K, 503.9 kPa, x2 = 0.5	605.31
260 K, 979.3 kPa, x2 = 0.25	601.29
260 K, 993.2 kPa, x2 = 0.75	610.92
260 K, 1011.2 kPa, x2 = 0.5	605.96
260 K, 1489.5 kPa, x2 = 0.75	611.52
260 K, 1490.8 kPa, x2 = 0.25	601.97
260 K, 1508.9 kPa, x2 = 0.5	606.59
260 K, 2002.5 kPa, x2 = 0.75	612.18
260 K, 2003.1 kPa, x2 = 0.25	602.64
260 K, 2010.9 kPa, x2 = 0.5	607.22
260 K, 2507.6 kPa, x2 = 0.5	607.84
260 K, 2510.1 kPa, x2 = 0.75	612.77
260 K, 2511.6 kPa, x2 = 0.25	603.29
260 K, 2993.6 kPa, x2 = 0.5	608.43
260 K, 2999.7 kPa, x2 = 0.25	603.92
260 K, 3016.5 kPa, x2 = 0.75	613.4
260 K, 3495.3 kPa, x2 = 0.75	613.93
260 K, 3505.2 kPa, x2 = 0.25	604.56
260 K, 3514 kPa, x2 = 0.5	609.08
260 K, 3991.1 kPa, x2 = 0.5	609.66
260 K, 4009.7 kPa, x2 = 0.75	614.5
260 K, 4014.1 kPa, x2 = 0.25	605.19
260 K, 4508.9 kPa, x2 = 0.5	610.27
260 K, 4519.2 kPa, x2 = 0.75	615.15
260 K, 4521 kPa, x2 = 0.25	605.82
260 K, 5018.2 kPa, x2 = 0.75	615.65
260 K, 5023.4 kPa, x2 = 0.25	606.44
260 K, 5026.4 kPa, x2 = 0.5	610.89
260 K, 5506.4 kPa, x2 = 0.25	607.02
260 K, 5512.2 kPa, x2 = 0.75	616.21
260 K, 5517.9 kPa, x2 = 0.5	611.47
260 K, 6004.4 kPa, x2 = 0.75	616.79
260 K, 6023 kPa, x2 = 0.5	612.08
260 K, 6028.5 kPa, x2 = 0.25	607.65
260 K, 6519.2 kPa, x2 = 0.25	608.25
260 K, 6526.2 kPa, x2 = 0.75	617.32
260 K, 6531.1 kPa, x2 = 0.5	612.67

240 K
Details	mass density [kg/m3]
x2 = 0.25	621.33
x2 = 0.5	625.96
x2 = 0.75	630.89
